Reference: PMC11969537 (ACS Chemical Neuroscience, 2025)

Target: cathepsin B (Mus musculus, UniProt P10605)
Test: fluorogenic protease assay with Z-Phe-Arg-AMC at pH […]
Assay type: biochemical

Sequence of cathepsin B (P10605 80-333): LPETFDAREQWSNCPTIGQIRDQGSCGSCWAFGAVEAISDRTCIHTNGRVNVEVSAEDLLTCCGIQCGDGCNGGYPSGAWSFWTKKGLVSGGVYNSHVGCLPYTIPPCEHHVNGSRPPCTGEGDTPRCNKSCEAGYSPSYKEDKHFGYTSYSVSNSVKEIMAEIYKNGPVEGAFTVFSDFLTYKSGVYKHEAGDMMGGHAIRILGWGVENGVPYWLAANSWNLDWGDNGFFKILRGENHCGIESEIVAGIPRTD

IC50: 25 nM
SMILES: Cc1cccc(C)c1C(=O)OCC(=O)[C@H](CCCCN)NC(=O)[C@H](CCCNC(=N)N)NC(=O)OCc1ccccc1 [Z-Arg-Lys-AOMK]
